# Results from US20190374554A1, “USE OF OXYGENATED CHOLESTEROL SULFATES (OCS) TO TREAT INFLAMMATORY SKIN DISEASE AND SKIN LESIONS” (Virginia Commonwealth University, priority 2016, published 2019).
# “And” between values parts separate entries of the source, which are not always exact repeats. Equal values may be shown once.
# Experiment: Infusion compatibility: 25HC3S diluted in 5% dextrose infusion bag and eluted through infusion sets (potency, osmolality, pH, appearance)
# Format: physicochemical
# Details: for 24 Hours at 2-8° C. Concentration / 24 Hours at 2-8° C. Osmolality / 24 Hours at 2-8° C. pH / 24 Hours at 25° C. % Remaining Compared to T = 0 / 24 Hours at 25° C. Concentration / 24 Hours at 25° C. Osmolality / 24 Hours at 25° C. pH / T = 0 Conc. / T = 0 Osmolality / T = 0 pH: 5% dextrose bag
# Protocol: A physical and chemical compatibility study was conducted at a 30 mg, 48 mg and 300 mg 25HC3S dose in 5% dextrose and 0.9% sodium chloride infusion bags. Descriptions of the two kinds of infusion sets tested with 25HC3S product diluted in 5% dextrose and 0.9% sodium chloride are listed in Table 15. The tubing in catalog number 2H8480 infusion set was composed of polyvinylchloride (PVC), while the tubing in catalog number 2C8858 was polyethylene lined except for a short pump segment (approximately 12 inches) which was composed of PVC.
# 25HC3S for Injection and Vehicle for 25HC3S for Injection, that had been stored at 2-8° C. for approximately 16 months, were used for the compatibility study. After constitution, 30 mg (1.0 mL of constituted product), 48 mg (1.6 mL of constituted product) or 300 mg (10 mL of constituted product) were added to 100 mL infusion bags of 5% dextrose and 0.9% sodium chloride, mixed thoroughly, and stored for 24 hours at room temperature and at 2-8° C. […] Taking into consideration the overfill per infusion bag and the additional volume introduced by adding the constituted 25HC3S product to each bag, the expected concentrations of 25HC3S were 0.28 mg/mL, 0.44 mg/mL, and 2.56 mg/mL in the infusion bags. Two kinds of infusion sets were then attached to the drug containing infusion bags, and the entire contents were eluted through the infusion sets at approximately 50 mL/hour at room temperature. Samples were collected from the 25HC3S prepared infusion bags at T=0 and at 24 hours, and from the total eluent passed through the infusion sets, and tested for 25HC3S concentration using HPLC. Solution visual appearance, osmolality (using method USP<785>), and pH (using method USP<791>) were also measured on the collected samples.
# [1] = 5% dextrose, approx. 0.28 mg/mL, bag 24 h at 2-8° C., Baxter 2C8858
# [2] = 5% dextrose, approx. 0.28 mg/mL, bag 24 h at 2-8° C., Baxter 2H8480
# [3] = 5% dextrose, approx. 0.28 mg/mL, bag 24 h at 25° C., Baxter 2C8858
# [4] = 5% dextrose, approx. 0.28 mg/mL, bag 24 h at 25° C., Baxter 2H8480
# [5] = 5% dextrose, approx. 0.44 mg/mL, bag 24 h at 2-8° C., Baxter 2C8858
# [6] = 5% dextrose, approx. 0.44 mg/mL, bag 24 h at 2-8° C., Baxter 2H8480
# [7] = 5% dextrose, approx. 0.44 mg/mL, bag 24 h at 25° C., Baxter 2C8858
# [8] = 5% dextrose, approx. 0.44 mg/mL, bag 24 h at 25° C., Baxter 2H8480
# [9] = 5% dextrose, approx. 2.56 mg/mL, bag 24 h at 2-8° C., Baxter 2C8858
# [10] = 5% dextrose, approx. 2.56 mg/mL, bag 24 h at 2-8° C., Baxter 2H8480
# [11] = 5% dextrose, approx. 2.56 mg/mL, bag 24 h at 25° C., Baxter 2C8858
# [12] = 5% dextrose, approx. 2.56 mg/mL, bag 24 h at 25° C., Baxter 2H8480
# [13] = dextrose drug containing solutions
compound,measurement,setting,value
"C[C@H](CCCC(C)(C)O)[C@H]1CC[C@H]2[C@@H]3CC=C4C[C@@H](OS(=O)(=O)[O-])CC[C@]4(C)[C@H]3CC[C@]12C.[Na+] [Formulation 25HC3S, 5-cholesten-3, 25-diol, 3-sulfate]",24 Hours at 2-8° C. Concentration,approx. 0.28 mg/mL 25HC3S,0.280 mg/mL
same,24 Hours at 2-8° C. Osmolality,approx. 0.28 mg/mL 25HC3S,250 mmol/kg and 253 mmol/kg
same,24 Hours at 2-8° C. pH,approx. 0.28 mg/mL 25HC3S,7.09 and 7.04
same,24 Hours at 25° C. % Remaining Compared to T = 0,approx. 0.28 mg/mL 25HC3S,(100.0%)
same,24 Hours at 25° C. Concentration,approx. 0.28 mg/mL 25HC3S,0.276 mg/mL and 0.277 mg/mL
same,24 Hours at 25° C. Osmolality,approx. 0.28 mg/mL 25HC3S,252 mmol/kg and 249 mmol/kg
same,24 Hours at 25° C. pH,approx. 0.28 mg/mL 25HC3S,7.12 and 7.05
same,T = 0 Conc.,approx. 0.28 mg/mL 25HC3S,0.276 mg/mL and 0.277 mg/mL and 0.280 mg/mL and 0.279 mg/mL
same,T = 0 Osmolality,approx. 0.28 mg/mL 25HC3S,247 mmol/kg and 250 mmol/kg and 251 mmol/kg
same,T = 0 pH,approx. 0.28 mg/mL 25HC3S,7.09 and 7.03 and 7.10 and 7.04
same,24 Hours at 2-8° C. Concentration,approx. 0.44 mg/mL 25HC3S,0.438 mg/mL and 0.440 mg/mL
same,24 Hours at 2-8° C. Osmolality,approx. 0.44 mg/mL 25HC3S,254 mmol/kg and 257 mmol/kg
same,24 Hours at 2-8° C. pH,approx. 0.44 mg/mL 25HC3S,6.96 and 6.93
same,24 Hours at 25° C. % Remaining Compared to T = 0,approx. 0.44 mg/mL 25HC3S,(100.0%)
same,24 Hours at 25° C. Concentration,approx. 0.44 mg/mL 25HC3S,0.447 mg/mL and 0.442 mg/mL
same,24 Hours at 25° C. Osmolality,approx. 0.44 mg/mL 25HC3S,256 mmol/kg and 253 mmol/kg
same,24 Hours at 25° C. pH,approx. 0.44 mg/mL 25HC3S,6.91 and 6.90
same,T = 0 Conc.,approx. 0.44 mg/mL 25HC3S,0.447 mg/mL and 0.442 mg/mL and 0.439 mg/mL
same,T = 0 Osmolality,approx. 0.44 mg/mL 25HC3S,255 mmol/kg and 254 mmol/kg and 256 mmol/kg
same,T = 0 pH,approx. 0.44 mg/mL 25HC3S,6.83 and 6.81 and 6.82 and 6.88
same,24 Hours at 2-8° C. Concentration,approx. 2.56 mg/mL 25HC3S,2.550 mg/mL and 2.530 mg/mL
same,24 Hours at 2-8° C. Osmolality,approx. 2.56 mg/mL 25HC3S,246 mmol/kg and 251 mmol/kg
same,24 Hours at 2-8° C. pH,approx. 2.56 mg/mL 25HC3S,6.11 and 6.14
same,24 Hours at 25° C. Concentration,approx. 2.56 mg/mL 25HC3S,2.470 mg/mL and 2.520 mg/mL
same,24 Hours at 25° C. Osmolality,approx. 2.56 mg/mL 25HC3S,257 mmol/kg and 250 mmol/kg
same,24 Hours at 25° C. pH,approx. 2.56 mg/mL 25HC3S,6.12 and 6.06
same,T = 0 Conc.,approx. 2.56 mg/mL 25HC3S,2.500 mg/mL and 2.510 mg/mL and 2.530 mg/mL and 2.525 mg/mL
same,T = 0 Osmolality,approx. 2.56 mg/mL 25HC3S,258 mmol/kg and 247 mmol/kg
same,T = 0 pH,approx. 2.56 mg/mL 25HC3S,6.04 and 6.12 and 6.29 and 6.26
same,After Storage in Infusion Bag and Collection from Infusion Set % Remaining Compared to T = 0,[1],(100.4%)
same,After Storage in Infusion Bag and Collection from Infusion Set Concentration,[1],0.280 mg/mL
same,After Storage in Infusion Bag and Collection from Infusion Set Osmolality,[1],252 mmol/kg
same,After Storage in Infusion Bag and Collection from Infusion Set pH,[1],6.99
same,After Storage in Infusion Bag and Collection from Infusion Set % Remaining Compared to T = 0,[2],(100.0%)
same,After Storage in Infusion Bag and Collection from Infusion Set Concentration,[2],0.280 mg/mL
same,After Storage in Infusion Bag and Collection from Infusion Set Osmolality,[2],251 mmol/kg
same,After Storage in Infusion Bag and Collection from Infusion Set pH,[2],6.95
same,After Storage in Infusion Bag and Collection from Infusion Set % Remaining Compared to T = 0,[3],(100.0%)
same,After Storage in Infusion Bag and Collection from Infusion Set Concentration,[3],0.277 mg/mL
same,After Storage in Infusion Bag and Collection from Infusion Set Osmolality,[3],252 mmol/kg
same,After Storage in Infusion Bag and Collection from Infusion Set pH,[3],7.04
same,After Storage in Infusion Bag and Collection from Infusion Set % Remaining Compared to T = 0,[4],(100.0%)
same,After Storage in Infusion Bag and Collection from Infusion Set Concentration,[4],0.276 mg/mL
same,After Storage in Infusion Bag and Collection from Infusion Set Osmolality,[4],252 mmol/kg
same,After Storage in Infusion Bag and Collection from Infusion Set pH,[4],6.99
same,After Storage in Infusion Bag and Collection from Infusion Set % Remaining Compared to T = 0,[5],(100.2%)
same,After Storage in Infusion Bag and Collection from Infusion Set Concentration,[5],0.440 mg/mL
same,After Storage in Infusion Bag and Collection from Infusion Set Osmolality,[5],255 mmol/kg
same,After Storage in Infusion Bag and Collection from Infusion Set pH,[5],6.93
same,After Storage in Infusion Bag and Collection from Infusion Set % Remaining Compared to T = 0,[6],(100.2%)
same,After Storage in Infusion Bag and Collection from Infusion Set Concentration,[6],0.440 mg/mL
same,After Storage in Infusion Bag and Collection from Infusion Set Osmolality,[6],257 mmol/kg
same,After Storage in Infusion Bag and Collection from Infusion Set pH,[6],6.91
same,After Storage in Infusion Bag and Collection from Infusion Set % Remaining Compared to T = 0,[7],(100.0%)
same,After Storage in Infusion Bag and Collection from Infusion Set Concentration,[7],0.442 mg/mL
same,After Storage in Infusion Bag and Collection from Infusion Set Osmolality,[7],253 mmol/kg
same,After Storage in Infusion Bag and Collection from Infusion Set pH,[7],6.90
same,After Storage in Infusion Bag and Collection from Infusion Set % Remaining Compared to T = 0,[8],(100.2%)
same,After Storage in Infusion Bag and Collection from Infusion Set Concentration,[8],0.448 mg/mL
same,After Storage in Infusion Bag and Collection from Infusion Set Osmolality,[8],253 mmol/kg
same,After Storage in Infusion Bag and Collection from Infusion Set pH,[8],6.91
same,After Storage in Infusion Bag and Collection from Infusion Set % Remaining Compared to T = 0,[9],(100.4%)
same,After Storage in Infusion Bag and Collection from Infusion Set Concentration,[9],2.535 mg/mL
same,After Storage in Infusion Bag and Collection from Infusion Set Osmolality,[9],248 mmol/kg
same,After Storage in Infusion Bag and Collection from Infusion Set pH,[9],6.10
same,After Storage in Infusion Bag and Collection from Infusion Set % Remaining Compared to T = 0,[10],(100.4%)
same,After Storage in Infusion Bag and Collection from Infusion Set Concentration,[10],2.540 mg/mL
same,After Storage in Infusion Bag and Collection from Infusion Set Osmolality,[10],247 mmol/kg
same,After Storage in Infusion Bag and Collection from Infusion Set pH,[10],5.99
same,After Storage in Infusion Bag and Collection from Infusion Set % Remaining Compared to T = 0,[11],(101.4%)
same,After Storage in Infusion Bag and Collection from Infusion Set Concentration,[11],2.545 mg/mL
same,After Storage in Infusion Bag and Collection from Infusion Set Osmolality,[11],251 mmol/kg
same,After Storage in Infusion Bag and Collection from Infusion Set pH,[11],6.00
same,After Storage in Infusion Bag and Collection from Infusion Set % Remaining Compared to T = 0,[12],(99.2%)
same,After Storage in Infusion Bag and Collection from Infusion Set Concentration,[12],2.480 mg/mL
same,After Storage in Infusion Bag and Collection from Infusion Set Osmolality,[12],261 mmol/kg
same,After Storage in Infusion Bag and Collection from Infusion Set pH,[12],6.01
same,deviation of 25HC3S concentrations from the initial T=0 time point,"5% dextrose, after 24 hours at room temperature and at 2-8° C., and after elution through infusion sets",≤ 1.4%
same,osmolality trend,[13],no consistent trends over time in the infusion bag or after elution through the infusion sets
same,pH trend,[13],no trends over time or after elution through the infusion sets
same,solution visual appearance,"dextrose, all three concentrations, after 24 hours in bags and after elution",remained as clear and colorless solutions
